Our source for the IC50 values is patent US5614625A, “Hydroxamic acid derivatives with tricyclic substitution” (Hoffmann-La Roche Inc., priority 1994, dated 1997).

Usually IC50 stands for the midpoint of a concentration-inhibition curve.

For the test, the target named is T1, collagenase obtained from a culture of human synovial fibroblasts (Homo sapiens, UniProt P03956).
T1 construct: endogenous in cells; host or cells: human synovial fibroblast culture (conditioned medium)
T1 sequence (P03956 100-469): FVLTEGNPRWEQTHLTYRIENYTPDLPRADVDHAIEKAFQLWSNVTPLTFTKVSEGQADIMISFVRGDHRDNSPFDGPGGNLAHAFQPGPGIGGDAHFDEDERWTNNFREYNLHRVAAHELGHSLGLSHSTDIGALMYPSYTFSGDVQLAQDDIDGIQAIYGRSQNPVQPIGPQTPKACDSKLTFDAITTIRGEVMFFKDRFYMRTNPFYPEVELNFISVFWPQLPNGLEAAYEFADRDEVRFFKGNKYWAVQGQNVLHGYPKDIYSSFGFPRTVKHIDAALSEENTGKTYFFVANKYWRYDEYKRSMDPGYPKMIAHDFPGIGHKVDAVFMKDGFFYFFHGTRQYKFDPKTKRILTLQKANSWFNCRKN
As to the kind of experiment: in vitro collagenase inhibiting activity, microtitre plate assay with 14C-acetylated collagen type I from rat tail tendons as substrate. Particulars: trypsin-activated pro-collagenase; 14C-acetylated collagen type I substrate; concentration reducing substrate cleavage and solubilization to 50%. In kind it is biochemical.

Consider `CN1C(=O)N(CC(C(=O)NO)[C@@H](CC2CC2)C(=O)N2CCC(O)CC2)C(=O)C1(C)C` (single isomer, unassigned) [Example 2, 1-[3-cyclopropyl-2-(R)-[1(R or S)-(hydroxycarbamoyl)-2-(3,4,4-trimethyl-2,5-dioxo-1-imidazolidinyl)ethyl]propionyl]-4-piperidinol], for which it took 18 nM to reach half-maximal inhibition (IC50).
In the case of `CN1C(=O)N(CC(C(=O)NO)[C@@H](CC2CCC2)C(=O)N2CCCCC2)C(=O)C1(C)C` (single isomer, unassigned) [Example 4, 1-[3-cyclobutyl-2(R)-[1(R or S)-(hydroxycarbamoyl)-2-(3,4,4-trimethyl-2,5-dioxo-1-imidazolidinyl)ethyl]propionyl]piperidine], the IC50 amounted to 7 nM.
To `CN1C(=O)N(CC(C(=O)NO)[C@@H](CC2CCC2)C(=O)N2CCC(O)CC2)C(=O)C1(C)C` (single isomer, unassigned) [Example 5, 1-[3-cyclobutyl-2(R)-[1(R or S)-(hydroxycarbamoyl)-2-(3,4,4-trimethyl-2,5-dioxo-1-imidazolidinyl)ethyl]propionyl]-4-piperidinol] belongs 2.5 nM.
`CN1C(=O)N(CC(C(=O)NO)[C@@H](CC2CCCC2)C(=O)N2CCC(O)CC2)C(=O)C1(C)C` (single isomer, unassigned) [Example 7, 1-[3-cyclopentyl-2[(R)-[1(R or S)-(hydroxycarbamoyl)-2-(3,4,4-trimethyl-2,5-dioxo-1imidazolidinyl)ethyl]propionyl]-4-piperidinol] displayed an IC50 of 6.5 nM.
To `CN1C(=O)N(CC(C(=O)NO)[C@@H](CC2CCCC2)C(=O)N2CCOCC2)C(=O)C1(C)C` (single isomer, unassigned) [Example 16, 4-[3-cyclopentyl-2(R)-[1(R or S)-(hydroxycarbamoyl)-2-(3,4,4-trimethyl-2,5-dioxo-1-imidazolidinyl)ethyl]propionyl]morpholine] belongs 4.1 nM; to `CNC(=O)[C@H]1N(C(=O)[C@H](CC2CCCC2)C(CN2C(=O)N(C)C(C)(C)C2=O)C(=O)NO)CSC1(C)C` (single isomer, unassigned) [Example 17, 3-[3-cyclopentyl-2(R)-[1(R or S)-(hydroxycarbamoyl)-2-(3,4,4-trimethyl-2,5-dioxo-1imidazolidinyl)ethyl]propionyl]-N,5,5-trimethyl-4(R)-thiazolidinecarboxamide], 2.35 nM; to `CN1C(=O)N(CC(C(=O)NO)[C@@H](CC2CCC2)C(=O)N2CCCCCCC2)C(=O)C1(C)C` (single isomer, unassigned) [Example 23, 1-[3-cyclobutyl-2(R)-[1(R or S)-(hydroxycarbamoyl)-2-(3,4,4-trimethyl-2,5-dioxo-1-imidazolidinyl)ethyl]propionyl]octahydroazocine], 34 nM.
